Measurements published in US20210393742A1, “LONG-ACTING INTERLEUKIN-15 RECEPTOR AGONIST IN COMBINATION WITH ANOTHER PHARMACOLOGICALLY ACTIVE AGENT” (Nektar Therapeutics, priority 2018, published 2021).

Key:
CD56+ human NK cells = experiment: Functional activation of human NK cells in PBMCs, CD69 and CD107a MFI by flow cytometry (Example 6); format: cell-based; conditions: overnight; Conjugate 1 1 μg/ml; plate coated with hIgG 0.1 mg/ml
Method: (§1) Functional activation of human NK cells within a human peripheral blood mononuclear cells (PBMCs) preparation was induced in vitro. PBMCs from two donors were incubated overnight in the presence of (i) mono(methoxyPEG-N-butanamide)40 kD interleukin-15 (Conjugate 1) at a concentration of 1 μg/ml; (ii) on cell culture plastic that had been prior coated overnight with human total immunoglobulin G (hIgG) solution at a concentration of 0.1 mg/ml (iii) on cell culture plastic that had been prior coated overnight with human total immunoglobulin G (hIgG) solution at a concentration of 0.1 mg/ml and in the presence of Conjugate 1 at a concentration of 1 μg/ml; or (iv) on regular cell culture plastic.
(§2) After the incubation period, NK cell activation was measured with flow cytometry by measuring the increase of median fluorescence intensity (MFI) signal of CD69 (FIG. 9A) and CD107a (FIG. 9B) detecting antibodies on the surface of CD56+ human NK cells within the PBMCs. Functional activation of NK cells was assessed by calculating the fold-change in MFI when comparing control condition where the cells were exposed to neither hIgG nor Conjugate 1. […] Secreted granzyme B concentration also indicative of NK cell activation in the culture media at the end of the experiment was measured by ELISA (FIG. 9C).

[1] = tested on: HT-29 colorectal carcinoma cells; experiment: Tumor growth inhibition and delay in HT-29 colorectal carcinoma model (Example 18); format: in vivo, mice; conditions: day 21 after treatment initiation; cetuximab 40 mg/kg IP x6; Compound 1 0.3 mg/kg IV x3
Method: Tumor growth inhibition was evaluated on day 21 after treatment initiation.
The tumor growth delay (TVQT) was evaluated with the endpoint set as 400% tumor growth from baseline.

human PBMCs = experiment: Secreted granzyme B in PBMC culture media by ELISA (Example 6); format: cell-based; conditions: overnight, Conjugate 1 1 μg/ml, plate coated with hIgG 0.1 mg/ml
Method: as §1, §2

[2] = tested on: STAT5 phosphorylation in KHYG-1 cells; experiment: Phosphorylation of STAT5 in KHYG-1 cells (Example 7); format: cell-based, human; conditions: 10 minutes
Method: KHYG-1 cells were cultured in RPMI-1640 medium supplemented with 20% FBS, 2 mM L-glutamine, and 20 ng/mL IL-2 (Complete growth medium) in a humidified incubator at 37° C. and 5% CO2.
One day prior to treatment with test compounds, cells were seeded at a density of 500,000 viable cells/ml in Complete growth medium and incubated overnight under normal growth conditions. On the day of the assay, KHYG-1 cells were washed 3 times with DPBS, resuspended in assay medium (RPMI-1640 medium supplemented with 20% FBS, 2 mM L-glutamine), and incubated for 4-5 hours at 37° C., 5% CO2. Cells were adjusted to the appropriate density (8×10^5 cells/mL) in assay medium and 50,000 cells/well were aliquoted into wells of a 96-well plate (View-Plate 96, Perkin-Elmer).
KHYG-1 cells were stimulated with IL-15 or a long-acting IL-15 receptor agonist (mono(mPEG-butanamide)IL-15) followed by incubation at 37° C., 5% CO2 for 10 minutes. Treated cells were lysed on ice.
Detection of phospho-STAT5 protein levels in cell lysates was performed using the Phospho(Tyr694)/Total STAT5a,b Assay Whole Cell Lysate kit (MSD product #K15163D). Relative light unit (RLU) signal corresponding to phosphor-STAT5 was collected using a Sector® Imager 2400 plate reader (MSD) with the results provided in FIG. 10A.

SKOV-3 cells = experiment: Tumor growth inhibition in SKOV-3 ovarian carcinoma model (Example 21); format: in vivo, mice; conditions: 35 days after treatment initiation; trastuzumab 13.5 mg/kg IV x6; Compound 1 0.3 mg/kg IV x3
Method: Tumor growth inhibition in inoculated mice was measured 35 days after treatment initiation.

NK cells = experiment: CD16 surface expression on bone marrow NK cells of Daudi lymphoma bearing mice (Example 10); format: in vivo; conditions: bone marrow day 24
Method: Balb/c mice bearing Daudi B cell lymphoma tumors in the bone marrow (n=6/group) were intraperitoneally administered a single 0.5 mg/kg dose of the human CD38 protein targeting clinical antibody daratumumab (DARZALEX®, Janssen Biotech) or a nonspecific control antibody with a matching isotype on day 14 after Daudi cell intravenous inoculation. Additional groups were treated with (i) mono(mPEG-N-butanamide)40 kD interleukin-15 (Conjugate 1) administered subcutaneously at a dose of 0.3 mg/kg as a single agent on days 14 and 21 after Daudi cell inoculation, or (ii) a combination treatment of Conjugate 1 administered subcutaneously at doses of 0.03 mg/kg or 0.3 mg/kg on days 14 and 21 after Daudi cell inoculation and daratumumab administered intraperitoneally at a dose of 0.5 mg/kg on day 14 after Daudi cell inoculation.
Three days following the second Conjugate 1 administration (day 24 after Daudi inoculation), bone marrow was collected and the NK cell fraction was measured by flow cytometry in total bone marrow. The fraction of NK cells expressing the cell surface CD16 receptor that is known to mediate antibody dependent cellular cytotoxicity mechanism in the presence of tumor targeting antibodies, and the change in CD16 expression per cell basis on NK cells are shown in FIGS. 13A and 13B, respectively.

[3] = tested on: human multiple myeloma RPMI-8226 cells; experiment: ADCC of daratumumab-coated target cells by primed human NK cells (Example 12); format: cell-based; conditions: NK cells primed with 300 ng/mL overnight; daratumumab 1 μg/mL; E:T 10:1, 3 hours
Method: Human NK cells were magnetically sorted from normal donor PBMCs using negative selection. NK cells were seeded in a 96-well U-bottom plate at a density of 80,000 cells/well (FIG. 15A) OR 400,000 cells/well (FIG. 15B). NK cells were stimulated with 300 ng/mL of a long-acting IL-15 receptor agonist (mono(mPEG-butanamide)IL-15) (+) or left unstimulated (−) in complete RPMI-1640 media supplemented with 10% fetal bovine serum (FBS) and 1% antibiotic/antimycotic overnight at 37° C. in 5% CO2.
The human multiple myeloma RPMI-8226 cells (ATCC #CCL-155) were washed in PBS and stained with 0.15 μM CFSE for 5 min at 37° C. The stimulated NK cells (effector cells) and the daratumumab-coated (+1 μg/mL) CFSE-labeled tumor cells (target cells) were concurrently co-cultured in an E:T ratio of 10:1 for 3 hours at 37° C. in 5% CO2. Following incubation, cells were washed in flow staining buffer, Fc-blocked for 15 min at 4° C., and surface-stained (CD45, CD56, CD3-fluorescently conjugated antibodies). The cells were washed in PBS and incubated in 7-aminoactinomycin (7-AAD) viability stain for 30 minutes at 4° C. before acquiring for flow cytometric analysis using a Fortessa (BD). The percentage of 7-AAD+ CFSE+ target cells from total cell population is the percentage for dead tumor cells.

[4] = Conjugate 1 0.3 mg/kg, antibody 0.5 mg/kg

## mono(methoxyPEG-N-butanamide)40 kD interleukin-15 [Conjugate 1]
CD56+ human NK cells
  CD69 MFI fold-change relative to no stimulation control: 1.8 fold
  CD107a MFI fold-change relative to no stimulation control: 2.6 fold
[1]
  tumor growth inhibition: no tumor growth inhibition
Human PBMCs
  Granzyme B concentration: 56 pg/mL
  Granzyme B concentration fold-change relative to no stimulation control: 4.1 fold
[2]
  phosphorylation of STAT5: dose-dependent phosphorylation of STAT5
  potency in STAT5 phosphorylation, fold less than IL-15: ~3 fold
SKOV-3 cells
  tumor growth inhibition: no tumor growth inhibition
NK cells; Conjugate 1 0.3 mg/kg SC days 14 and 21, antibody 0.5 mg/kg IP day 14
  Fraction of NK cell expressing cell surface CD16 (mean value): 96%
NK cells; [4]
  CD16 mean fluorescence intensity (MFI mean value): 853
  Relative CD16 expression compared to untreated condition: 1.8x increase
[3]
  ADCC, % 7-AAD+ target cells: enhance ADCC
